Here are results for 2 compounds from ChEMBL document CHEMBL1201862, “PubChem BioAssay data set” (2004).

Some targets named below: Insulin receptor (Homo sapiens, UniProt P06213); Misshapen-like kinase 1 (Homo sapiens, UniProt Q8N4C8); SRSF protein kinase 1 (Homo sapiens, UniProt Q96SB4).
Common to all, as to format: functional
The target of assay [1] is Serine/threonine-protein kinase Chk1 (Homo sapiens, UniProt O14757).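 Note: measured as one member of a kinome-wide kinase profiling panel.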
Assay [2] deals with Tyrosine-protein kinase Srms (Homo sapiens, UniProt Q9H3Y6).
Assay [3] addresses Serine/threonine-protein kinase N2 (Homo sapiens, UniProt Q16513).
The target in assay [4] is Serine/threonine-protein kinase Nek2 (Homo sapiens, UniProt P51955).
For assay [5], the target named is Mitogen-activated protein kinase kinase kinase kinase 2 (Homo sapiens, UniProt Q12851).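 Note: measured as one member of a kinome-wide kinase panel, with MAP4K2 as the panel entry.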
The target in assay [6] is Mitogen-activated protein kinase 13 (Homo sapiens, UniProt O15264).
The target of assay [7] is Cyclin-dependent kinase 2 (Homo sapiens, UniProt P24941).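 Note: CDK2 measured as one member of a broad kinome profiling panel.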
For assay [8], the target named is Ribosomal protein S6 kinase alpha-3 (Homo sapiens, UniProt P51812).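 Note: measured within a kinome-wide profiling panel.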
Assay [9] addresses ALK tyrosine kinase receptor (Homo sapiens, UniProt Q9UM73).
In assay [10] the target is Serine/threonine-protein kinase PAK 4 (Homo sapiens, UniProt O96013).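 Note: value obtained within a kinome profiling panel in which PAK4 was one of the panel members.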
In assay [11] the target is Serine/threonine-protein kinase Nek4 (Homo sapiens, UniProt P51957).
Assay [12] addresses Serine/threonine-protein kinase BRSK1 (Homo sapiens, UniProt Q8TDC3).
For assay [13], the target named is Serine/threonine-protein kinase PLK4 (Homo sapiens, UniProt O00444).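 Note: PLK4 measured as one member of a kinome-wide kinase profiling panel.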
Assay [14] deals with Protein kinase C gamma type (Homo sapiens, UniProt P05129).
In assay [15] the target is BDNF/NT-3 growth factors receptor (Homo sapiens, UniProt Q16620).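 Note: NTRK2 measured as one member of a broad kinome-wide kinase profiling panel.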
Assay [16] concerns the target Casein kinase I isoform alpha (Homo sapiens, UniProt P48729).
For assay [17], the target named is Proto-oncogene tyrosine-protein kinase Src (Homo sapiens, UniProt P12931).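 Note: SRC entry within a kinome-wide kinase profiling panel.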
Assay [18] deals with MAP/microtubule affinity-regulating kinase 3 (Homo sapiens, UniProt P27448).
Assay [19] has as its target Interleukin-1 receptor-associated kinase 4 (Homo sapiens, UniProt Q9NWZ3).
Assay [20] addresses Maternal embryonic leucine zipper kinase (Homo sapiens, UniProt Q14680).
Assay [21] has as its target Tyrosine-protein kinase FRK (Homo sapiens, UniProt P42685).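 Note: FRK tested as one member of a kinome panel.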
Assay [22] has as its target Mitogen-activated protein kinase 8 (Homo sapiens, UniProt P45983).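 Note: value comes from one member of a kinome-wide kinase profiling panel.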
In assay [23] the target is STE20-like serine/threonine-protein kinase (Homo sapiens, UniProt Q9H2G2).
Assay [24] addresses RAC-alpha serine/threonine-protein kinase (Homo sapiens, UniProt P31749).
Assay [25] deals with Insulin-like growth factor 1 receptor (Homo sapiens, UniProt P08069). Kind of assay: Navigating the Kinome. Panel member name: IGF1R.
For assay [26], the target named is Homeodomain-interacting protein kinase 2 (Homo sapiens, UniProt Q9H2X6).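 Note: measured within a kinome-wide kinase profiling panel, HIPK2 being one panel member.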
Assay [27] has as its target Calcium/calmodulin-dependent protein kinase type II subunit gamma (Homo sapiens, UniProt Q13555).
The target of assay [28] is Serine/threonine-protein kinase MRCK alpha (Homo sapiens, UniProt Q5VT25).
Assay [29] addresses Mitogen-activated protein kinase 9 (Homo sapiens, UniProt P45984).
The target of the next assay is T1, Protein RecA (Mycobacterium tuberculosis, UniProt P9WHJ3).
T1 sequence (P9WHJ3 whole entry): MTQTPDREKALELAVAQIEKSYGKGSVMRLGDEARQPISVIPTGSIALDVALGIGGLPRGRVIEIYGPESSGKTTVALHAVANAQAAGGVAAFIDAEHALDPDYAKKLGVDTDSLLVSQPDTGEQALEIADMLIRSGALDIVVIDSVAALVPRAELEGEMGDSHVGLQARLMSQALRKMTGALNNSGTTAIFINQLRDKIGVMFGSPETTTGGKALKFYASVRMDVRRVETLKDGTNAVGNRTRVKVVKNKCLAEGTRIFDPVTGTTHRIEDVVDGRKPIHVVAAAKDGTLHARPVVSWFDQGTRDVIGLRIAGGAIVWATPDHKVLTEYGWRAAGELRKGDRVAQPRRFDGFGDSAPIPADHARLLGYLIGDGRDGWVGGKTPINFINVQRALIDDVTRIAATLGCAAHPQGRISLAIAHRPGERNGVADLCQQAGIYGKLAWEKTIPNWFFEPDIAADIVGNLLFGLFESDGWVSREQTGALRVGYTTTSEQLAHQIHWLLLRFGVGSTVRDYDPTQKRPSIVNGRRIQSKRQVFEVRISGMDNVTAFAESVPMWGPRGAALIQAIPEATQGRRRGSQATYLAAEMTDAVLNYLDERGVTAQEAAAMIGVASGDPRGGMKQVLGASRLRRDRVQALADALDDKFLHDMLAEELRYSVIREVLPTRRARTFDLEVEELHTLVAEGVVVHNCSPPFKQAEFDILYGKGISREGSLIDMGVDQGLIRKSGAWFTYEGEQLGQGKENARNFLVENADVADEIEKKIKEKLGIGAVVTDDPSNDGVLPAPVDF
Kind of assay: Fluorescence Cell-Free Homogeneous Dose Retest to Identify Inhibitors of RecA-Intein Splicing Activity. [Related pubchem assays (depositor defined):AID2097, AID2223, AID489010, AID492950].

For another assay, the system named is Vero. Briefly: Vero cell cytotoxicity, cytotoxicity control for flavivirus capping enzyme inhibitors (AID 588742). Conditions: Chlorocebus sabaeus.
In another assay the target is Genome polyprotein (dengue virus type 2, UniProt P29990). Kind of assay: Dengue-2 NS5 methyltransferase inhibitors, primary screen, biochemical, confirmation dose response (AID 588689).

Activity calls are given as the source filed them.

One may read the Ki as the equilibrium dissociation constant of an inhibitor or competing ligand from its target. As usually defined, the EC50 is the concentration at which the effect is half-maximal. As usually defined, the CC50 is the concentration at which the toxic effect on the cells reaches its halfway point. As usually defined, the IC50 is the concentration that gives 50% inhibition.

Mitogen-activated protein kinase 9, sequence (P45984 whole entry): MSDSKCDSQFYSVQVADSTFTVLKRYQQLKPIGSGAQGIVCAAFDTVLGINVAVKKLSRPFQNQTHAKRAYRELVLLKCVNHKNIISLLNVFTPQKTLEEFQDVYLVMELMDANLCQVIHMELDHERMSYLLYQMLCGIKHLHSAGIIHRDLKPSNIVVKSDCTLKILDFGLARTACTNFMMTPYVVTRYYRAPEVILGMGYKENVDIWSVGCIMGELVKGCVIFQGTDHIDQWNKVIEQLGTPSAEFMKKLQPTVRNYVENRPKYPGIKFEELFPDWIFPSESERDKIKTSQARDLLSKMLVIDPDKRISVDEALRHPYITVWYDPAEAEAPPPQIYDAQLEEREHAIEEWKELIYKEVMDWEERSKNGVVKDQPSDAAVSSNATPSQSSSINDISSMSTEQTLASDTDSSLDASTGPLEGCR
MAP/microtubule affinity-regulating kinase 3, sequence (P27448 whole entry): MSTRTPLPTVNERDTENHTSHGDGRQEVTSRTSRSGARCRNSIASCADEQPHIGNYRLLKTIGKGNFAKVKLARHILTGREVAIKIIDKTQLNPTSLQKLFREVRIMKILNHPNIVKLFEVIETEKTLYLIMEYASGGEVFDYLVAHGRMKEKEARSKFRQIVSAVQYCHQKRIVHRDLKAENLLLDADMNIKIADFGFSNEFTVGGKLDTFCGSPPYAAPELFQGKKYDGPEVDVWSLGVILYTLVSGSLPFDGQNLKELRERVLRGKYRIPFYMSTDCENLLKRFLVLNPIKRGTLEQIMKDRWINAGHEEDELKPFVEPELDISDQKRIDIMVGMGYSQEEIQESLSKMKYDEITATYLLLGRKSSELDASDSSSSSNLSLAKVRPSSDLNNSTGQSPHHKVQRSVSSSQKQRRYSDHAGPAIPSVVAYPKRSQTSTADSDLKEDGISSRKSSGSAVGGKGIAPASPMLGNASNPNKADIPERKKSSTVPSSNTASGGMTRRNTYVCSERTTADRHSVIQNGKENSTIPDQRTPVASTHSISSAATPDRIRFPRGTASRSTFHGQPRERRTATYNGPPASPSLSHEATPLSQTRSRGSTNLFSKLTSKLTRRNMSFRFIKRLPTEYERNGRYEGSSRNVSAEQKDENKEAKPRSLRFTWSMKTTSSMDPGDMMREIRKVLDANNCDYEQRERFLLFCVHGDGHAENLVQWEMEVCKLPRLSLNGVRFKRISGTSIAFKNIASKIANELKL
Serine/threonine-protein kinase PAK 4, sequence (O96013 whole entry): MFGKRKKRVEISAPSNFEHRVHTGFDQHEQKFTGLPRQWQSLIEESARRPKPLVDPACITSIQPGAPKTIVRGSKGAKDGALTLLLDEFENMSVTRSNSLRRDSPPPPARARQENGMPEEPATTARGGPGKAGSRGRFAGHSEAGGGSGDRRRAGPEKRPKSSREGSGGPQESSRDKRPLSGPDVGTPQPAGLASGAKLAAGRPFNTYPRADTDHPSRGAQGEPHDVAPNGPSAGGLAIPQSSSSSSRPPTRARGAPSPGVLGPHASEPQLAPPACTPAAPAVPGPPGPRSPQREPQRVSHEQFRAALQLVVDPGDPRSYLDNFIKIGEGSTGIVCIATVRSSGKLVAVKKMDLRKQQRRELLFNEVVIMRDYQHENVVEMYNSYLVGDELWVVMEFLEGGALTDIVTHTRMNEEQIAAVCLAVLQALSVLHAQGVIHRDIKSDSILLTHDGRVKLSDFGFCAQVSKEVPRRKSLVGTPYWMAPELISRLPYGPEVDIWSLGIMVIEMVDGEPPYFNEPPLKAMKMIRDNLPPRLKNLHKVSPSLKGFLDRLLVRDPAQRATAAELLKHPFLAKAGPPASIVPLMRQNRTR
Serine/threonine-protein kinase Nek2, sequence (P51955 whole entry): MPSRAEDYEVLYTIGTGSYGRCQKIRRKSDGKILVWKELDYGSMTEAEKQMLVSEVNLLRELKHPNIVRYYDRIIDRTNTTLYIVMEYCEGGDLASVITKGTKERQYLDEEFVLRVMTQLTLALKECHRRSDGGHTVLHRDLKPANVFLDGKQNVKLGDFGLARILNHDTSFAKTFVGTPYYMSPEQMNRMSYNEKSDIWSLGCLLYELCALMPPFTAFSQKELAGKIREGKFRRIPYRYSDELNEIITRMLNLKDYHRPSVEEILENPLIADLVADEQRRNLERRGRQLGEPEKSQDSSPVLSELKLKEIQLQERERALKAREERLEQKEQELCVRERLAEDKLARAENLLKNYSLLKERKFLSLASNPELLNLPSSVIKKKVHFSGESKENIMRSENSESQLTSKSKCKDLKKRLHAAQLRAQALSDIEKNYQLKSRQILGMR
Serine/threonine-protein kinase BRSK1, sequence (Q8TDC3 whole entry): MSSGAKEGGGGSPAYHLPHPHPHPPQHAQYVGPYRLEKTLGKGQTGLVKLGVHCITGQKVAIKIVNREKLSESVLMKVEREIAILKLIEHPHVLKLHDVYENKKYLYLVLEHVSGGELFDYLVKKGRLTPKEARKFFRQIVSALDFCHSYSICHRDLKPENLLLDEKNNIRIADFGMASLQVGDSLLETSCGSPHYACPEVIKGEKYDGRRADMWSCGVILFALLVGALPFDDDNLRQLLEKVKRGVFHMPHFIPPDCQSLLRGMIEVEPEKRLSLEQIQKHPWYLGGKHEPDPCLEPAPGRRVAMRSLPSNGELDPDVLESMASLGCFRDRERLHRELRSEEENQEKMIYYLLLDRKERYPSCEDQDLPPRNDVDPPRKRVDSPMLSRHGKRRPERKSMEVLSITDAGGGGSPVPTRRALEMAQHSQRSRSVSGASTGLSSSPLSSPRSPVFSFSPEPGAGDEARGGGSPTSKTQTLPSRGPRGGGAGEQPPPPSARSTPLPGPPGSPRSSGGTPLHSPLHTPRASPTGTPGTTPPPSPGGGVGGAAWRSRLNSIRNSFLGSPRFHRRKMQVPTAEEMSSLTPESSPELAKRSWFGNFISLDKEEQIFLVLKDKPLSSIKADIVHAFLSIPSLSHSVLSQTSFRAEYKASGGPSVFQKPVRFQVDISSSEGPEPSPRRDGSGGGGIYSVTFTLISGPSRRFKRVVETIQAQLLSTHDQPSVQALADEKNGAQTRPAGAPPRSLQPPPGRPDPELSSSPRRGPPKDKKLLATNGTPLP
Misshapen-like kinase 1, sequence (Q8N4C8 whole entry): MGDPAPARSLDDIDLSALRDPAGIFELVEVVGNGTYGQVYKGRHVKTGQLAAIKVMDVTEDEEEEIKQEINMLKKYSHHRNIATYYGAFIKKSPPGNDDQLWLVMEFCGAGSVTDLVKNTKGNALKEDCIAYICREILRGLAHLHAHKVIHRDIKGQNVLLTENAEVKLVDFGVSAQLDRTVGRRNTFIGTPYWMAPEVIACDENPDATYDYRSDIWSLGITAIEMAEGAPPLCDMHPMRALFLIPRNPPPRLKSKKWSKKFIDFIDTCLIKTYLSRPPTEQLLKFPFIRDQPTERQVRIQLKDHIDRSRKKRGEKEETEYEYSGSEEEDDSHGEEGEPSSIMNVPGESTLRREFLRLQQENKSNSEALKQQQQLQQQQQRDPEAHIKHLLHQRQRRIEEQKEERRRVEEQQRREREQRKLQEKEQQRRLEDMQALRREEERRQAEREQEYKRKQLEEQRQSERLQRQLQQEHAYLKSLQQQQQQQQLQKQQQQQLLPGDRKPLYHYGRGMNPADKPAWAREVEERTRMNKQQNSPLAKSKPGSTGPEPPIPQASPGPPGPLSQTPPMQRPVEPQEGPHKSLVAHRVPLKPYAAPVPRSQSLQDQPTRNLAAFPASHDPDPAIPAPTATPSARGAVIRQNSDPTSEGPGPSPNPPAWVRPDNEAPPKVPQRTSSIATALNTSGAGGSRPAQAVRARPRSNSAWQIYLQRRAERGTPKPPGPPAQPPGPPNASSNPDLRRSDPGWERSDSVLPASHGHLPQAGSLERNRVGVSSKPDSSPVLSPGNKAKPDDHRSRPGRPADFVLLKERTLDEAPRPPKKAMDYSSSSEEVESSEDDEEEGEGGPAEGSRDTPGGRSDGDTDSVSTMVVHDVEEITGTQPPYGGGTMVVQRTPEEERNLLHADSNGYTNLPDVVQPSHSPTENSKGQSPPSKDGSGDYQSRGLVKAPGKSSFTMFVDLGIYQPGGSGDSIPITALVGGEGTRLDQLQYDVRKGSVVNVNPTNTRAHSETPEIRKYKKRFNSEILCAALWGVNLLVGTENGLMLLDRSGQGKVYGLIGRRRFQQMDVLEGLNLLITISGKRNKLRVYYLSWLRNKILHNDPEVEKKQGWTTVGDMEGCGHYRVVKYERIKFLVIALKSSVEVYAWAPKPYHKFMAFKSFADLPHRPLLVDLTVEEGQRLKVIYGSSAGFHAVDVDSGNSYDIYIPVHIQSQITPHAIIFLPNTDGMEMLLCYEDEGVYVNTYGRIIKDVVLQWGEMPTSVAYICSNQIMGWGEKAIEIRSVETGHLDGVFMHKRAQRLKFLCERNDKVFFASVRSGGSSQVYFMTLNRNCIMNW

On to `Cn1cncc1C(OCc1c(-c2ccc(OC(F)(F)F)cc2)cc(C#N)c(=O)n1C)c1ccc(C#N)cc1` (stereo not given), for which the Ki is > 7.94 µM (inactive) in [1]; > 1.58 µM (inactive) in assay [2]; > 7.94 µM (inactive) in assay [3]; > 10 µM (inactive) in assay [4]; > 6.31 µM (inactive) in assay [5]; > 7.94 µM (inactive) in [6]. Moreover, the Ki in assay [7] is > 7.94 µM (inactive); in [8] it was > 7.94 µM (inactive); in assay [9] it was > 6.31 µM (inactive); on Insulin receptor, > 5.01 µM (inactive); in [10] it was > 5.01 µM (inactive); in assay [11], > 6.31 µM (inactive). Moreover, the Ki in assay [12] was > 10 µM (inactive); in [13] it was > 3.98 µM (inactive); at Misshapen-like kinase 1, > 7.94 µM (inactive); in assay [14], > 7.94 µM (inactive); in [15], > 5.01 µM (inactive); in assay [16], > 6.31 µM (inactive). In addition, the Ki in [17] is > 2 µM (inactive); at SRSF protein kinase 1, > 7.94 µM (inactive); in [18], 0.794 µM (active); in assay [19], > 10 µM (inactive); in assay [20] it was > 1.58 µM (inactive); in assay [21] it was > 2.51 µM (inactive). Also, the Ki in [22] is > 3.16 µM (inactive); in [23], > 10 µM (inactive); in assay [24], > 7.94 µM (inactive); in assay [25], > 2 µM (inactive); in [26] it was > 3.16 µM (inactive); in assay [27], > 6.31 µM (inactive). The values for the Ki in assay [28] and in [29] were > 10 µM (inactive) and > 3.98 µM (inactive), respectively.

On to `CCc1ccc(S(=O)(=O)/N=C2\C=C(NS(=O)(=O)c3ccccc3)C(=O)c3ccccc32)cc1`, for which the EC50 on Protein RecA is 3.08 µM (active). Besides, in the assay on Vero, the CC50 is > 40 µM (active). The concentration for half-maximal inhibition (IC50) on Genome polyprotein is 22.9 µM (active).
